Patent publication US20120283175A1, “ANTIBACTERIAL COMPOSITIONS” (Achaogen, Inc., priority 2009, published 2012)
≈ marks a conversion by molar mass, not a printed value. Where “and” joins values, the source holds several entries; their conditions need not be identical. Identical values can stand only once. Like-named read-outs stand apart in the source and are kept apart here.

Tests used:
K. pneumo. (ATCC43816) = assay: Neutropenic thigh in vivo efficacy model (mice); set-up: species or system Klebsiella pneumoniae; Static Dose, LpxC cmpd / Static Dose, LpxC in combination: unit not given here; conditions: for Static Dose, LpxC cmpd: LpxC compound alone; for Static Dose, LpxC in combination: combination agent Vanco (440 mg/kg/day)
Excerpt: (§1) The model was run essentially as described by Craig and others (see Gudmundsson et al., “Murine Thigh Infection Model,” Handbook of Animal Models of Infection, M. A. Sande and O. Zak, Eds.; London: Academic Press, 1999, pp 137-144). Briefly, mice were rendered neutropenic prior to infection with 2 doses of cyclophosphamide, and then infected intramuscularly in the thigh with inocula of 10^3-10^5 CFU of either K. pneumo. (ATCC43816) or P. aeruginosa (ATCC27853). Antibiotics or vehicle alone as a negative control were administered twice at 2 hrs and 14 hrs post-infection. The animals were kept neutropenic for the duration of the experiment in order to minimize the effect of white blood cells on the infection such that the microbiological readout measures the in vivo interaction of drugs and bacteria. At 24 hrs post-infection, thighs were harvested, homogenized, and plated to measure the number of CFUs surviving per thigh. Thighs from a subset of animals were also harvested 2 hrs post-infection to record the CFUs present just prior to the first antibiotic treatment (pre-treatment).

envA1 (D22) E. coli = assay: MIC by broth microdilution, isogenic envA1 mutant strain; assay type: cell-based; conditions: Strain envA1 (D21)
Procedure: (§2) Bacterial isolates were cultivated from −70° C. frozen stocks of the indicated strains by overnight passages at 35° C. in ambient air on Mueller-Hinton agar (Beckton Dickinson, Franklin Lakes, N.J.). Minimum Inhibitory Concentrations (MICs) were determined by the broth microdilution method in accordance with the Clinical and Laboratory Standards Institute (CLSI) guidelines. In brief, organism suspensions were adjusted to a 0.5 McFarland standard to yield a final inoculum between 3×10^5 and 7×10^5 colony-forming units (CFU)/mL. Drug dilutions and inocula were made in sterile, cation adjusted Mueller-Hinton Broth (Beckton Dickinson). An inoculum volume of 100 μL was added to wells containing 100 μL of broth with 2-fold serial dilutions of drug. All inoculated microdilution trays were incubated in ambient air at 35° C. for 18-24 hours. Following incubation, the lowest concentration of the drug that prevented visible growth (OD600 nm <0.05) was recorded as the MIC.

[1] = test system: P. aeruginosa (ATCC27853)
Excerpt: as §1
This table focuses on the sensitive part of the LpxCi-4 dose response curve (30 mg/kg) by examining the mean log CFU at 0 or 24 hours, as well as the log change in CFU at 24 hours relative to zero hours (“ΔLogCFU vs […]”). Data is given for animals treated with vehicle, LpxCi-4 at 30 mg/kg, a second agent alone at the indicated doses or the combination of LpxCi-4 at 30 mg/kg plus the second agent at the indicated dose. The standard errors for each measurement are also given (n=5 animals/group). By comparing the observed drop in CFU of the combination with the sum of the drop in CFU associated with each of the two agents given separately, one can determine whether the combination is, in fact, synergistic in vivo.

[2] = test system: Klebsiella pneumoniae (ATCC 43816); assay type: in vivo; conditions: for Mean CFU/g thigh muscle (SEM): normal plates; for Mean CFU/g thigh muscle (SEM) / CFU/Drug Plate - Dilution 10^0 / CFU/Drug Plate - Dilution 10^−1: Vancomycin 25 mg/kg, LpxC-i 35 mg/kg; for CFU/Drug Plate - Dilution 10^0 / CFU/Drug Plate - Dilution 10^−1: per animal N 1-5; on CFU/Drug Plate - Dilution 10^0: key: +: Too many colonies to permit accurate counting
Procedure: Vancomycin and LpxCi-5 were dissolved in 30% HPβCD (2-hydroxypropyl-β-cyclodextrin). Test substances were each administered subcutaneously (SC) singly or in combination to test animals at 2 hours and 14 hours after bacterial inoculation then bid daily for a total of 1, 2, 3 or 7 day(s). The dosing volume was 5 mL/kg.
Groups of 5 or 10 male specific-pathogen-free CD-1 (Crl.) mice weighing 24±2 g were used. Animals were immunosuppressed by two or three intraperitoneal injections of cyclophosphamide, the first at 150 mg/kg 4 days before infection (day −4) and the second or third at 100 mg/kg 1 day before or 3 days after infection (day −1 or +3). On day 0, animals were inoculated intramuscularly (0.1 mL/thigh) into the right thigh with a specific number (1.35×10^7 CFU/mouse) of Klebsiella pneumoniae (ATCC 43816). Vehicle and test substances (singly or in combination) were each administered subcutaneously 2 hours and 14 hours after inoculation then bid for a total of 1, 2, 3 or 7 consecutive day(s). Groups at 24, 48, 72 hours and day 8 hours after treatment as the designated time of harvest, muscle of the right thigh was harvested from each of the survival test animals. An additional group with no treatment, at 2 hours after inoculation, the muscle of the right thigh was harvested and viable CFU on agar plates with or without drug were quantified by standard methods. Animals in groups designated for Day 8 harvest are 10 mice and daily tally of survivors were kept until harvest and recorded. A non-infected group was just treated with LpxCi-5 and kept out to Day 8 and then harvested. The removed muscle tissues were then homogenized in 3˜4 mL of PBS, pH 7.4, with a ceramic mortar. Homogenates of 0.1 mL were used for serial 10-fold dilutions and plated on Muller-Hinton Broth in 1.5% Bacto agar and plated in parallel with drug plates for CFU determination. The original inoculum was adjusted to 2×10^8 CFU/0.1 mL and then plated onto the 3 different drug plates of LpxCi-5 for CFU count.
The immunity of animals treated with vehicle or vancomycin alone was suppressed by two intraperitoneal injections of cyclophosphamide, the first was at 150 mg/kg 4 days before infection (day −4) and the second was at 100 mg/kg 1 day before infection (day −1). On day 0, test compound and vehicle were each administered subcutaneously at 2 and 14 hrs after animals were inoculated intramuscularly (0.1 mL/thigh) with 1.35×10^7 CFU/mouse of Klebsiella pneumoniae (ATCC 43816).
(§3) The immunity of animals treated with LpxCi-5 alone was suppressed by two or three intraperitoneal injections of cyclophosphamide, the first was at 150 mg/kg 4 days before infection (day −4); the second and the third was at 100 mg/kg 1 day before and three days after infection (day −1 and day +3). On day 0, test compound were each administered subcutaneously bid at 2 and 14 hrs after animals were inoculated intramuscularly (0.1 mL/thigh) with 1.35×10^7 CFU/mouse of Klebsiella pneumoniae (ATCC 43816) for one, two, three or seven consecutive days. At 24, 48, 72 hours or at day 8 after treatment, muscle of the right thigh was harvested from each of the test animals for CFU determination in normal and drug plates.
as §3, with “both vancomycin and the LpxC inhibitor, LpxCi-5,” for “LpxCi-5 alone”, “compounds in combination” for “compound”, “days.” for “days. At 24, 48, 72 hours or at day 8 after treatment, muscle of the right thigh was harvested from each of the test animals for CFU determination in normal and drug plates.”

Klebsiella pneumoniae = assay: Checkerboard synergy assay with LpxCi-4; assay type: cell-based; conditions: combination with LpxCi-4
Excerpt: (§4) One classic method for assessing synergy, referred to as the checkerboard assay, is used to predict the efficacy of antibacterial agents, and is described by Scribner et. al., (Antimicrobial Agents and Chemotherapy 21(6):939-943 (1982)) and in Goodman & Gilman (The Pharmacological Basis of Therapeutics, Sixth Edition, pp. 1097-1098 (1980)). The checkerboard assay involves serial two-fold dilutions of the antibiotics individually and in combination in broth, which is then inoculated with the microorganism to be tested. After incubation, the minimum inhibitory concentration (MIC) of each drug used individually and in combination is determined (N.B., the MIC is the lowest concentration of the drug that inhibits growth in the medium). Synergism is indicated by a decrease in the MIC of each drug when used in combination. Antagonism is indicated by an increase in the MIC of either or both drugs when used in combination. Alternate methods of assessing synergy are reviewed in Greco, et al., Pharmacological Reviews 47(2):[…] (1995), incorporated herein by reference in its entirety.
(§5) Partial or full inhibition of LpxC should compromise the outer membrane and thus allow these synergizing agents to enter the cells and exert an antibacterial effect at concentrations where cells untreated with an LpxC inhibitor are unaffected. As a first step, checkerboard synergy assays for a variety of antibacterial agents were perform with several LpxC inhibitors, on several species of gram negative bacteria.
as §2
(§6) Standard checkerboard assays were performed with a combination of the indicated agents and LpxCi-4. Table 2 provides the FICI calculated according to standard techniques.

Pseudomonas aeruginosa = assay: Checkerboard synergy assay with LpxCi-4; assay type: cell-based; conditions: combination with LpxCi-4 (3936); Pseudomonas aeruginosa (ATCC27853 in text)
Excerpt: as §4, §5, §2, §6

gram negative bacteria = assay: Checkerboard synergy score at fractions of the antibacterial agent's MIC, with LpxCi-1, -2, -3; assay type: cell-based; set-up: scale not given here
Procedure: as §5, §2

[3] = strain 27853, combination agent Vanco

C[C@@H](O)[C@H](NC(=O)c1ccc(C#Cc2ccc(CN3CCOCC3)cc2)cc1)C(=O)NO [LpxCi-3, N-((2S,3R)-3-hydroxy-1-(hydroxyamino)-1-oxobutan-2-yl)-4-((4-(morpholinomethyl)phenyl)ethynyl)benzamide]
in vivo synergy with vancomycin (K. pneumo. (ATCC43816); bacterial strain ATCC43816): in vivo synergy
Static Dose, LpxC cmpd (K. pneumo. (ATCC43816); strain 43816): >1000
Static Dose, LpxC in combination (K. pneumo. (ATCC43816); strain 43816): 107

Cc1onc(-c2ccccc2)c1C(=O)N[C@@H]1C(=O)N2[C@@H]1SC(C)(C)[C@@H]2C(=O)O [Oxacillin, oxacillin]
MIC (envA1 (D22) E. coli): 16 µg/mL (≈ 39.9 µM)
ΔLogCFU vs 24 hr ([1]; 24 hr, second block of Table 5, mg/kg/day b.i.d.: 3936 30, Eryth. 60, Dapto. 3, Oxacil. 100): −0.35
Log CFU Mean ([1]; 24 hr, second block of Table 5, mg/kg/day b.i.d.: 3936 30, Eryth. 60, Dapto. 3, Oxacil. 100, n=5): 7.29
in vivo synergy with LpxC inhibitors ([1]; P. aeruginosa (ATCC27853), summary): modest but potentially useful in vivo synergy

CC(C)(O)[C@H](NC(=O)c1ccc(C#CC#CC2CC2)cc1)C(=O)NO [LpxCi-6, (S)-4-(cyclopropylbuta-1,3-diynyl)-N-(3-hydroxy-1-(hydroxyamino)-3-methyl-1-oxobutan-2-yl)benzamide]
Static Dose, LpxC cmpd (K. pneumo. (ATCC43816); strain 43816): 240
Fold Shift Static Dose (K. pneumo. (ATCC43816); strain 43816, combination agent Vanco): 3x
Static Dose, LpxC in combination (K. pneumo. (ATCC43816); strain 43816): 80
in vivo synergy with vancomycin ([1]; bacterial strain ATCC27853): in vivo synergy
Static Dose, LpxC cmpd ([1]; strain 27853, LpxC compound alone): 269
Fold Shift Static Dose [1, 3]: 1.8x
Static Dose, LpxC in combination [1, 3]: 151

CC(C)(N)[C@H](NC(=O)c1ccc(C#C/C=C/C2CC2)cc1)C(=O)NO [LpxCi-5, (S,E)-N-(3-amino-1-(hydroxyamino)-3-methyl-1-oxobutan-2-yl)-4-(4-cyclopropylbut-3-en-1-ynyl)benzamide]
Mean CFU/g thigh muscle (SEM) ([2]; 24 hr, SC bid × 1): 3.81 × 10^7 CFU/g
CFU/Drug Plate - Dilution 10^0 ([2]; 24 hr, SC bid × 1): +
CFU/Drug Plate - Dilution 10^−1 ([2]; 24 hr, SC bid × 1): 780 CFU/Drug Plate and + (4×)
Mean CFU/g thigh muscle (SEM) ([2]; 48 hr, SC bid × 2): 3.80 × 10^8 CFU/g
CFU/Drug Plate - Dilution 10^0 ([2]; 48 hr, SC bid × 2): +
CFU/Drug Plate - Dilution 10^−1 ([2]; 48 hr, SC bid × 2): +
Mean CFU/g thigh muscle (SEM) ([2]; 72 hr, SC bid × 3): 1.48 × 10^9 CFU/g
CFU/Drug Plate - Dilution 10^0 ([2]; 72 hr, SC bid × 3): +
CFU/Drug Plate - Dilution 10^−1 ([2]; 72 hr, SC bid × 3): +
Mean CFU/g thigh muscle (SEM) ([2]; Day 8, SC bid × 7): all animals died
protection of the animals ([2]; LpxCi-5 at 35 mg/kg bid (70 mg/kg/day)): provides protection to the animals out to 72 hours
resistant CFU present at 24, 48 and 72 hours ([2]; LpxCi-5 at 35 mg/kg bid alone): > 10^3 CFU/thigh
total burden of CFU by 72 hours ([2]; LpxCi-5 at 35 mg/kg bid alone): > 10^9 CFU/thigh
in vivo synergy and suppression of emergence of resistant mutants ([2]; LpxCi-5 with Vancomycin): synergistic with Vancomycin in vivo
survival to Day 8 ([2]; bid for seven consecutive days): All animals were dead by Day 8

CC(=O)NC[C@H]1CN(c2ccc(N3CCOCC3)c(F)c2)C(=O)O1 [Linezolid, linezolid]
FICI index (Klebsiella pneumoniae): ≦0.5
FICI index (Pseudomonas aeruginosa): no effect
Synergy Score (gram negative bacteria; with LpxCi-1, antibacterial agent at 1/16 MIC): 0.46
Synergy Score (gram negative bacteria; with LpxCi-1, antibacterial agent at 1/64 MIC): 1.03
Synergy Score (gram negative bacteria; with LpxCi-1, antibacterial agent at ¼ MIC): 0.54
Synergy Score (gram negative bacteria; with LpxCi-2, antibacterial agent at ¼ MIC): 1.25
Synergy Score (gram negative bacteria; with LpxCi-3, antibacterial agent at 1/16 MIC): 1.06
Synergy Score (gram negative bacteria; with LpxCi-3, antibacterial agent at 1/64 MIC): 1.02
Synergy Score (gram negative bacteria; with LpxCi-3, antibacterial agent at ¼ MIC): 0.58
